# Assay results published in patent EP3498298A1, “THE USE OF SGC STIMULATORS AND SGC ACTIVATORS ALONE OR IN COMBINATION WITH PDE5 INHIBITORS FOR THE TREATMENT OF BONE DISORDERS INCLUDING OSTEOGENESIS IMPERFECTA (OI)” (Bayer AG, priority 2017, dated 2019).
# Experiments:
# [1] = test system: ovariectomized female mice; details: intraperitoneally, 10µg/kg bolus dose; cited from earlier work
# mice = details: cited from earlier work
# [2] = test system: B6C3Fe a/a-Col1a2 oim /J (OI mice) termed as HOM; assay: 16 week chronic treatment study, micro-CT of femora (bone morphology and architecture) in OI mice; assay type: in vivo; details: 300 ppm (300mg/kg chow), 16 weeks; treated female HOM mice compared to untreated female HOM mice; P < 0.05
# Text: (§1) Preferentially mice were used, especially transgenic mice (B6C3Fe a/a-Col1a2 oim /J (Jackson Laboratories)) (Chipman et al. 1993, McBride et al. 1998). These so called OI-mice (OIM, also called HOM mice) carry a mutation in the collagen gen (Col1a2) which reflects the phenotype and clinical situation of patients with […] OI. For the treatment homozygous OIM are used and compared with WT mice which serve as control.
# (§2) As read-outs were preferentially used: • semiquantitative RT/PCR (TaqMan PCR) to assess gene expression according to standard procedures • histopathology to assess bone morphology according to standard procedures • high-resolution micro-CTscanner (µCT 35; Scanco Medical AG, Briittisellen, Switzerland) to evaluate bone morphology and architecture (Micro-CT) • three-point bending test to assess mechanical properties of the femora (Mechanical testing)
# (§3) A high-resolution micro-CTscanner (µCT 35; Scanco Medical AG, Briittisellen, Switzerland) was used to evaluate bone morphology and architecture. […] The trabecular and cortical parameters were determined according to the guidelines for the assessment of bone microstructure with micro-CT (Bouxsein et al., 2010). […]
# wild-type mice (WT) = assay: 16 week chronic treatment study, micro-CT of femora (bone morphology and architecture) in wild-type mice; assay type: in vivo; details: 300 ppm (300mg/kg chow), 16 weeks
# Text: as §1, §2, §3
structure (smiles),measurement,setting,value
O=C(O)CCCCN(CCc1ccccc1OCc1ccc(CCc2ccccc2)cc1)Cc1ccc(C(=O)O)cc1 [cinaciguat],bone density,[1],could increase bone density
"CCCc1nn(C)c2c(=O)[nH]c(-c3cc(S(=O)(=O)N4CCN(C)CC4)ccc3OCC)nc12 [sildenafil, 3-[2-ethoxy-5-(4-methylpiperazin-1-yl)sulfonyl-phenyl]-7-methy1-9-propy1-2,4,7,8-tetrazabicyclo [4.3.0]nona-3,8,10-trien-5-one]",fracture healing,mice,accelerates fracture healing
"Nc1nc(-c2nn(Cc3ccccc3F)c3ncccc23)ncc1C1CC1 [BAY 41-2272, 3-(4-amino-5-cyclopropylpyrimidin-2-yl)-1-(2-fluorobenzyl)-1H-pyrazolo[3,4-b]pyridine]",trabecular number (Tb.N),[2],increased
same,trabecular separation (Tb.Sp),[2],decreased
same,structural properties of both trabecular and cortical bone,wild-type mice (WT),no effect
